The subject of one assay is Th1 and Th2 responses. Nature of the assay: Modulation of Th1 and Th2 responses at administered dose. The class given is in vivo. From the text:
The effects of 2-β-D-ribofuranosylthiazole-4-carboxamide (Tiazofurin), a synthetic C-nucleoside analogue, on GTP levels supports this view. Tumor cells are characterized by high levels of inosine monophosphate dehydrogenase (IMP DH) activity, and it is known that IMP DH is the rate-limiting enzyme of GTP biosynthesis. Weber, G., IMP Dehydrogenase and GTP as Targets in Human Leukemia Treatment. Adv. Exp. Med. Biol. 309B:287-292 (1991). […] Weber, G., Critical Issues in Chemotherapy with Tiazofurin, Adv. Enzyme Regul. 29:75-95 (1989). Typical initial doses of Tiazofurin are about 4,400 mg/m^2, with consolidation doses of about 1100 to 3300 mg/m^2. […] In one aspect of the present invention it is contemplated that much smaller doses of Tiazofurin, in the range of 1/10th to one-half that set forth above, would be sufficient to specifically suppress either a Th1 response or a Th2 response without greatly reducing the other response.
The effects of 1β-D-ribofuranosyl-1,2,4-triazole-3-carboxamide (Ribavirin) also supports the present theory. […] Yamada, Y. et al., Action of the Active Metabolites of Tiazofurin and Ribavirin on Purified IMP Dehydrogenase, Biochem. 27:2193-2196 (1988). Ribavirin proceeds under a different mechanism than Tiazofurin in inhibiting IMP DH, however, acting on a different site on the enzyme molecule. Ribavirin is converted to its active metabolite, ribavirin-monophosphate (RMP), which inhibits the enzyme at the IMP-XMP site of IMP DH. As with Tiazofurin, the affinity of Ribavirin's active form to the enzyme is higher than that of the natural metabolite.
In another aspect of the invention, an abnormality reflected in increased response in one group of cytokines is treated by administering a nucleoside or other compound that increases response in another group of cytokines. Thus, for example, a common rapid onset type of allergy results in an abnormally elevated Th2 response.
It is also contemplated that an abnormality reflected in increased response in one group of cytokines can be treated by administering a nucleoside that increases response in another group of cytokines.

Assay [1] has as its system inosine monophosphate dehydrogenase (IMP DH). The conditions noted are these: cited from earlier work.
The next assay relates to guanine nucleotide pools. The conditions noted are these: cited from earlier work.
The next assay relates to tumors. Particulars: in vivo; cited from earlier work.
Where [2] appears, read: approximately 600 to 1000 mg/day.

Molecules are shown by their SMILES. Entries after “also recorded” stand apart in the source; their conditions may differ.

As to `NC(=O)c1ncn([C@@H]2O[C@H](CO)[C@@H](O)[C@H]2O)n1` [Ribavirin, 1β-D-ribofuranosyl-1,2,4-triazole-3-carboxamide], in the assay with Th1 and Th2 responses (setting [2]), the Th1 response entry is reported as “promotes a Th1 response; also recorded: Th1 response is induced” and the Th2 response entry is on record as “suppresses a Th2 response; also recorded: Th2 response is suppressed”. The Th1 response entry in the assay with Th1 and Th2 responses (low dosages of about 500 mg/day to about 1,000 mg/day) is on record as “increases Th1 response”. The “Th1 and Th2 responses” value with Th1 and Th2 responses (relatively high doses, approximately 2200 mg/m^2 or about 1200-1500 mg/day for an adult) was “both Th1 and Th2 responses are inhibited”. In addition, the “IMP DH activity” value in assay [1] was “inhibit IMP DH”.

Take `NC(=O)c1csc([C@@H]2O[C@H](CO)[C@@H](O)[C@H]2O)n1` [Tiazofurin, 2-β-D-ribofuranosylthiazole-4-carboxamide]: in the assay on Th1 and Th2 responses (Tiazofurin initial doses about 4,400 mg/m^2, consolidation doses about 1100 to 3300 mg/m^2), the “Th1 and Th2 responses” value is listed as “greatly reduced”. Besides, the “IMP DH activity” value in assay [1] is on record as “selectively block IMP DH activity”. The guanine nucleotide pools entry with guanine nucleotide pools is reported as “deplete guanine nucleotide pools”. In addition, in the assay with tumors, the tumor remission entry is recorded as “forces various tumors into remission”.

The values above are taken from patent US6423695B1, “Cytokine related treatments of disease” (Ribapharm, Inc., priority 1998, dated 2002).
